The CheMixHub viscosity set

Assay: xn = mol fraction of the nth substance listed

CC(=O)NCC(=O)O + O
viscosity [mPa·s], 101 kPa
Conditions | 305.15 K | 310.15 K | 315.15 K
x1 = 3.6e-05 | 0.7912 | 0.7079 | 0.6523
x1 = 7.24e-05 | 0.7987 | 0.7201 | 0.6594
x1 = 0.000108 | 0.8032 | 0.7298 | 0.6613
x1 = 0.000144 | 0.8098 | 0.7307 | 0.6623
x1 = 0.0001823 | 0.8102 | 0.7321 | 0.6627
x1 = 0.000344 | 0.8162 | 0.7345 | 0.6658
x1 = 0.0007167 | 0.8254 | 0.7372 | 0.6685
x1 = 0.001025 | 0.8325 | 0.7401 | 0.6724
x1 = 0.001416 | 0.8398 | 0.7443 | 0.6751
x1 = 0.001792 | 0.8466 | 0.7473 | 0.6785
x1 = 0.002155 | 0.8523 | 0.7499 | 0.6822
x1 = 0.002607 | 0.8583 | 0.7554 | 0.6887
x1 = 0.003011 | 0.8641 | 0.7603 | 0.6933
x1 = 0.003546 | 0.8721 | 0.7654 | 0.6996

Cc1cccc(O)c1 + O=Cc1ccccc1
308.15 K, 101.33 kPa
Conditions | viscosity [mPa·s]
x2 = 0.103 | 5.863
x2 = 0.308 | 3.972
x2 = 0.398 | 3.45
x2 = 0.545 | 2.597
x2 = 0.602 | 2.3
x2 = 0.704 | 1.844
x2 = 0.903 | 1.37

N + O=[N+]([O-])[O-].O=[N+]([O-])[O-].[Ca+2]
293.15 K, 101 kPa
Conditions | viscosity [mPa·s]
x2 = 0.01 | 0.17
x2 = 0.02 | 0.238
x2 = 0.042 | 0.355
x2 = 0.087 | 0.783

CCCCC(CC)COP(=O)(O)OCC(CC)CCCC (stereo unspecified) + O=[N+]([O-])c1ccccc1
Conditions | viscosity [mPa·s]
303.15 K, 100 kPa, x1 = 0.9387 | 17.75

Nc1ccc(Br)cc1 + [Br-].[Br-].[Br-].[Sb+3]
323.15 K, 101 kPa
Conditions | viscosity [mPa·s]
x2 = 0.25 | 212.7
x2 = 0.333 | 1215
x2 = 0.4 | 12170
x2 = 0.45 | 20000
x2 = 0.48 | 20530
x2 = 0.5 | 20730
x2 = 0.52 | 19960
x2 = 0.55 | 11640
x2 = 0.6 | 4143
x2 = 0.75 | 239.8

Brc1ccc(Br)cc1 + c1ccccc1
viscosity [mPa·s], 101 kPa
Conditions | 298.15 K | 303.15 K | 308.15 K | 313.15 K
x1 = 0.2002 | 0.8249 | 0.7715 | 0.719 | 0.6739
x1 = 0.2312 | 0.8532 | 0.8051 | 0.7502 | 0.7021

CCCCCCCCCCCCN + c1ccccc1
303.15 K, 101 kPa
Conditions | viscosity [mPa·s]
x2 = 0.2072 | 2.122
x2 = 0.4348 | 1.563
x2 = 0.5228 | 1.375
x2 = 0.6046 | 1.189
x2 = 0.7998 | 0.8357

C[N+](=O)[O-] + c1ccccc1
Conditions | viscosity [mPa·s]
293.15 K, 101.33 kPa, x1 = 0.0919 | 0.627
293.15 K, 101.33 kPa, x1 = 0.2238 | 0.606
293.15 K, 101.33 kPa, x1 = 0.2978 | 0.597
293.15 K, 101.33 kPa, x1 = 0.3994 | 0.587
293.15 K, 101.33 kPa, x1 = 0.494 | 0.582
293.15 K, 101.33 kPa, x1 = 0.7053 | 0.585
293.15 K, 101.33 kPa, x1 = 0.8004 | 0.595
293.15 K, 101.33 kPa, x1 = 0.9073 | 0.62
298.15 K, 101 kPa, x1 = 0.1559 | 0.5732
298.15 K, 101 kPa, x1 = 0.294 | 0.5584
298.15 K, 101 kPa, x1 = 0.4165 | 0.5532
298.15 K, 101 kPa, x1 = 0.5262 | 0.5534
298.15 K, 101 kPa, x1 = 0.6247 | 0.5571
298.15 K, 101 kPa, x1 = 0.7142 | 0.5652
298.15 K, 101 kPa, x1 = 0.7953 | 0.577
298.15 K, 101 kPa, x1 = 0.8693 | 0.5909
298.15 K, 101 kPa, x1 = 0.9376 | 0.6098
298.15 K, 101 kPa, x2 = 0.1005 | 0.6116
298.15 K, 101 kPa, x2 = 0.2025 | 0.5886
298.15 K, 101 kPa, x2 = 0.3017 | 0.5772
298.15 K, 101 kPa, x2 = 0.4012 | 0.5724
298.15 K, 101 kPa, x2 = 0.5019 | 0.5707
298.15 K, 101 kPa, x2 = 0.6014 | 0.5751
298.15 K, 101 kPa, x2 = 0.7074 | 0.5817
298.15 K, 101 kPa, x2 = 0.7985 | 0.5905
298.15 K, 101 kPa, x2 = 0.8947 | 0.6035
303.15 K, 101 kPa, x2 = 0.1005 | 0.5803
303.15 K, 101 kPa, x2 = 0.2025 | 0.5594
303.15 K, 101 kPa, x2 = 0.3017 | 0.5479
303.15 K, 101 kPa, x2 = 0.4012 | 0.5438
303.15 K, 101 kPa, x2 = 0.5019 | 0.5405
303.15 K, 101 kPa, x2 = 0.6014 | 0.5447
303.15 K, 101 kPa, x2 = 0.7074 | 0.5475
303.15 K, 101 kPa, x2 = 0.7985 | 0.556
303.15 K, 101 kPa, x2 = 0.8947 | 0.5662
308.15 K, 101 kPa, x2 = 0.1005 | 0.5518
308.15 K, 101 kPa, x2 = 0.2025 | 0.5299
308.15 K, 101 kPa, x2 = 0.3017 | 0.5201
308.15 K, 101 kPa, x2 = 0.4012 | 0.5142
308.15 K, 101 kPa, x2 = 0.5019 | 0.512
308.15 K, 101 kPa, x2 = 0.6014 | 0.5126
308.15 K, 101 kPa, x2 = 0.7074 | 0.5157
308.15 K, 101 kPa, x2 = 0.7985 | 0.5234
308.15 K, 101 kPa, x2 = 0.8947 | 0.5309
313.15 K, 101 kPa, x2 = 0.1005 | 0.5218
313.15 K, 101 kPa, x2 = 0.2025 | 0.5031
313.15 K, 101 kPa, x2 = 0.3017 | 0.4923
313.15 K, 101 kPa, x2 = 0.4012 | 0.4862
313.15 K, 101 kPa, x2 = 0.5019 | 0.4829
313.15 K, 101 kPa, x2 = 0.6014 | 0.4843
313.15 K, 101 kPa, x2 = 0.7074 | 0.4865
313.15 K, 101 kPa, x2 = 0.7985 | 0.4912
313.15 K, 101 kPa, x2 = 0.8947 | 0.4977

Cc1cccc(O)c1 + c1ccccc1
308.15 K, 101 kPa
Conditions | viscosity [mPa·s]
x1 = 0.1019 | 0.6327
x1 = 0.1702 | 0.7272
x1 = 0.305 | 0.9887
x1 = 0.4025 | 1.282
x1 = 0.5186 | 1.693
x1 = 0.6441 | 2.436
x1 = 0.768 | 3.648
x1 = 0.8611 | 4.963
x1 = 0.9525 | 6.937

c1ccc(Cc2ccccc2)cc1 + c1ccccc1
302.85 K, 101 kPa
Conditions | viscosity [mPa·s]
x1 = 0.113 | 0.733
x1 = 0.204 | 0.877
x1 = 0.288 | 1.026
x1 = 0.523 | 1.502
x1 = 0.686 | 1.873
x1 = 0.801 | 2.132
x1 = 0.893 | 2.342
